Assay results taken from publication PMC6680918, “New Butenolides and Cyclopentenones from Saline Soil-Derived Fungus Aspergillus Sclerotiorum” (Molecules, 2019).
pIC50: −log10 of the molar value. ≈ marks a conversion by molar mass, not a printed value.

What was measured:
[1] = tested on: Staphylococcus aureus (ATCC 25923); experiment: Antimicrobial assay, broth microdilution, S. aureus; assay type: cell-based; design: key to MIC S. aureus: -: no activity; settings: MIC = 80% growth inhibition, tested 400 to 0.39 µg/mL; for MIC: Staphylococcus aureus, ATCC25923, 12 h at 37 °C
Procedure: (§1) Meanwhile, the antimicrobial assays of compounds 1–9 were screened against Staphylococcus aureus (ATCC 25923), Escherichia coli (ATCC 25922) and Candida albicans (ATCC 10231).
(§2) The antimicrobial assays against S. aureus, E. coli and C. albicans were carried out by the broth microdilution method. The tested organisms were incubated overnight with shaking (200 rpm) in thermostatic oscillation incubator (37 °C) in Mueller Hinton broth (MHB) and liquid Sabourand medium for the bacteria and the fungus, respectively. The microbial inoculum density was adjusted to 1 × 10^6 cfu/mL with 0.9% saline solution by comparison with a MacFarland standard. The tested substances and positive drugs were dissolved in methanol to an initial concentration of 40 mg/mL. 4 μL of initial compound solution and 196 μL of MHB (liquid Sabourand medium for fungus) were added into the first well and mixed evenly. Then 100 μL of solution from the first hole, along with 2 μL of methanol and 98 μL of MHB (liquid Sabourand medium for fungus), were transferred to the second hole, and then shaken up as mixture uniform. The repetitive operation was performed to the eleventh one, from which 100 μL of solution well was discarded. Then, 100 μL of microbial suspension was added to the solutions in 96-well to achieve a final volume of 200 µL and final sample concentrations from 400 to 0.39 µg/mL. The blank well was also incubated with only medium under the same conditions. All experiments were carried out in triplicate and with chloramphenicol and ketoconazole as the positive controls. Optical density measurement for bacteria and fungus was recorded at 620 nm after incubation at 37 °C for 12 and 24 h, respectively. The minimal inhibitory concentration (MIC) was defined as the concentration at which the growth was inhibited 80% of the tested microorganisms.

[2] = tested on: Escherichia coli (ATCC 25922); experiment: Antimicrobial assay, broth microdilution, E. coli; assay type: cell-based; design: key to MIC E. coli: -: no activity; settings: MIC = 80% growth inhibition, tested 400 to 0.39 µg/mL; for MIC: Escherichia coli, ATCC25922, 12 h at 37 °C; for MIC E. coli: 12 h at 37 °C
Procedure: as §1, §2

[3] = tested on: Candida albicans (ATCC 10231); experiment: Antimicrobial assay, broth microdilution, C. albicans; assay type: cell-based; design: key to MIC C. albicans: -: no activity; settings: MIC = 80% growth inhibition, tested 400 to 0.39 µg/mL; for MIC C. albicans: 24 h at 37 °C; for MIC: Candida albicans, ATCC10231, 24 h at 37 °C
Procedure: as §1, §2

[4] = tested on: human promyelocytic leukemia (HL60) cell line; experiment: cells; settings: HL-60, read-out: IC50 cytotoxicity against HL60
Procedure: (§3) The cytotoxic activity against HL60, A549 and HL-7702 cell lines was performed by the MTT method as previously described.

[5] = tested on: human lung adenocarcinoma (A549) cell line; experiment: Cytotoxicity by the MTT method, A549; settings: A549, read-out: IC50 cytotoxicity against A549
Procedure: as §3

in vitro = settings: human
Procedure: as §3

Row | MIC [1] | MIC [2] | MIC C. albicans [3] | MIC E. coli [2] | SMILES | further results
1 |  |  | - | - | COC1=CC(=O)C(C)C1O (racemic) [Compound 5, (±)-4-hydroxy-3-methoxy-5-methyl-2-cyclopentenone] | MIC S. aureus ([1]; 12 h at 37 °C): -
2 | > 400 µg/mL |  | - | - | COC1=CC(=O)OC1(O)C(C)CO (stereo not drawn) [Compound 6, 6-hydroxyl dihydropenicillic acid] | 
3 | > 400 µg/mL |  | - | - | C=C(OC)C1(O)OC(=O)C=C1C (stereo not drawn) [Compound 7, spersclerotioron G] | 
4 | 6.25 µg/mL (≈ 36.7 µM) | 12.5 µg/mL (≈ 73.5 µM) |  |  | C=C(C)C1(O)OC(=O)C=C1OC (stereo not drawn) [Compound 8, penicillic acid] | MIC [3]: 50 µg/mL (≈ 294 µM)
5 | > 400 µg/mL |  | - | - | COC1=CC(=O)OC1(O)C(C)C (stereo not drawn) [Compound 9, dihydropenicillic acid] | 
6 | 3.12 µg/mL (≈ 9.66 µM) | 6.25 µg/mL (≈ 19.3 µM) |  |  | O=C(N[C@H](CO)[C@H](O)c1ccc([N+](=O)[O-])cc1)C(Cl)Cl [chloramphenicol, reference compound] | 

Second part, the compound before the results:

Row | SMILES | MIC [1] | MIC [2] | MIC C. albicans [3] | MIC E. coli [2] | further results
7 | COC1=CC(=O)OC12Oc1cc(O)cc(C)c1CC2C (racemic) [Compound 4, (±)-Aspersclerolide D] | > 400 µg/mL | > 400 µg/mL | - |  | 
8 | CC(=O)C1(O)OC(=O)C=C1C (stereo not drawn) [Compound 1, Aspersclerolide A] | > 400 µg/mL | > 400 µg/mL | - |  | pIC50 [4]: 5.19; pIC50 [5]: 5.05; pIC50 (in vitro): 4.75
9 | COC(CO)C1(O)OC(=O)C=C1C (stereo not drawn) [Compound 2, Aspersclerolide B] | 200 µg/mL (≈ 1060 µM) | 200 µg/mL (≈ 1060 µM) | - |  | 
10 | COC1=CC(=O)OC1(O)C(C)Cc1c(C)cc(O)cc1O (stereo not drawn) [Compound 3, Aspersclerolide C] | 200 µg/mL (≈ 680 µM) | 200 µg/mL (≈ 680 µM) | - |  | pIC50 [4]: 4.92; pIC50 [5]: 4.78; pIC50 (in vitro): 4.64
11 | COc1cccc2c1C(=O)c1c(O)c3c(c(O)c1C2=O)C[C@@](O)(C(=O)CO)C[C@@H]3O[C@H]1C[C@H](N)[C@H](O)[C@H](C)O1 [doxorubicin, reference compound] |  |  |  |  | pIC50 [4]: 6.07; pIC50 [5]: 5.82; pIC50 (in vitro; HL-7702 cells (human normal liver, non-cancer)): 5.08
12 | CC(=O)N1CCN(c2ccc(OCC3COC(Cn4ccnc4)(c4ccc(Cl)cc4Cl)O3)cc2)CC1 (stereo not drawn) [ketoconazole, reference compound] |  |  |  |  | MIC [3]: 6.25 µg/mL (≈ 11.8 µM)
